Data reported in patent US20090221559A1 (priority 2005, published 2009).
Like-named read-outs stand apart in the source and are kept apart here.

What was measured:
[1] = target: T1, HCV NS5B polymerase (His-tagged, C-terminal 21 amino acid deleted NS5B, HC-J4) (Hepatitis C virus genotype 1b, UniProt O92972); experiment: NS5b polymerase assay (biochemical RdRp assay, 3H-GTP incorporation, SPA beads); parameters: species or system HCV genotype 1b
T1 construct: The cDNA encoding NS5B amino acid 1-570 (HC-J4, genotype 1b); His tag (His6, from pET-21b) (C); made in house; host or cells: E. coli BL21 (DE3)
Procedure, shortened: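 3H-GTP incorporation into newly made RNA was captured on SPA beads added in EDTA after 2 h at 25 °C. Compounds in DMSO met preformed enzyme–template complex (200 nM truncated His-NS5B, HC-J4 1b; biotin-oligo(rG13)/poly(rC)) for 15 min at RT, then 600 nM GTP, 5 mM MgCl2, Tris pH 7.5 started polymerization.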

[2] = tested on: HCV replicon RNA replication in Huh-7 luc/neo (Huh-Luc) cells; experiment: HCV replicon assay (stable replicon cell reporter assay, luciferase read-out); format: cell-based, HCV type 1b
Procedure, shortened: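 Three-day compound exposure used Huh-Luc cells, which harbour an autonomously replicating genotype 1b NS3-NS5B replicon expressing luciferase and neo^R. Luciferase signal served as the replication read-out, and dose-response curves came from several concentrations per compound.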

[3] = NS5B Polymerase Assay IC50 (μM)
[4] = Hepatitis C virus, Huh-7, 72 h, read-out: Replicon Assay EC50 (μM), Huh-Luc cells, incubation of three days, luciferase activity
[5] = NS5B Polymerase Assay IC50, 200 nM enzyme, 3H-GTP incorporation, 2 h at 25° C.
[6] = Hepatitis C virus, Huh-7, 72 h, read-out: Replicon Assay EC50, Huh-Luc cells, three days incubation, luciferase activity
[7] = 200 nM enzyme, 3H-GTP incorporation, 2 h at 25° C., read-out: NS5B Polymerase Assay IC50
[8] = Huh-Luc cells, three days incubation, luciferase activity, read-out: Replicon Assay EC50

T1 sequence (O92972 2417-3000, looked up, stated change not applied): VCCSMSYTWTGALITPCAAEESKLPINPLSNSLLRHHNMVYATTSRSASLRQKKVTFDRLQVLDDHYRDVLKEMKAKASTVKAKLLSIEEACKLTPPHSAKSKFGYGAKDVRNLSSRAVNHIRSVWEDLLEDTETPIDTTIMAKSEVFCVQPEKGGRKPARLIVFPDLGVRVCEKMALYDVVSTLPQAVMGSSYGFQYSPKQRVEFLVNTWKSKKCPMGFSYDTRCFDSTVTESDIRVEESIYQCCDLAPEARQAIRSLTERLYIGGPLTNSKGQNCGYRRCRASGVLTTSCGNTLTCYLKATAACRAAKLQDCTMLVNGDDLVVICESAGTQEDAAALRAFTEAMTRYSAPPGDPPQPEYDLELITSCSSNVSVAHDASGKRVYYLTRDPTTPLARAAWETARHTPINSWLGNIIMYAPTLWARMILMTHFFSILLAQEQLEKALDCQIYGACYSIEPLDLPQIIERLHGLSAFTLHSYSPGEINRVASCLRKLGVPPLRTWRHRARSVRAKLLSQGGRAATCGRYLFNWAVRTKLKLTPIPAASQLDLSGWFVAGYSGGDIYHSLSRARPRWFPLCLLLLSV

| SMILES | IC50 [1, 3] | EC50 [2, 4] | IC50 [1, 5] | EC50 [2, 6] | other results |
| --- | --- | --- | --- | --- | --- |
| COc1ccc(C2CC(=O)C3=C(C2)Nc2ccccc2NC3c2ccccc2C(F)(F)F)cc1 (centres unmarked) [compound 324] | > 42.6 µM | 18.5 µM |  |  |  |
| COc1ccc(C2CC(=O)C3=C(C2)Nc2ccccc2NC3c2ccc(OC)cc2OC)cc1 (centres unmarked) [compound 372] | > 42.7 µM | 1.94 µM |  |  |  |
| CC(C)C(=O)N1c2ccccc2NC2=C(C(=O)CC(C)(C)C2)C1c1ccccc1F (centres unmarked) [compound 23] |  |  | > 42.7 µM | 20.3 µM |  |
| COc1cccc2c1NC1=C(C(=O)CC(C)(C)C1)C(c1ccc(Cl)cc1Cl)N2C(C)=O (centres unmarked) [compound 320] |  |  | 6.77 µM | 33 µM |  |
| CC(C)c1ccc(C2Nc3ccccc3NC3=C2C(=O)CC(c2ccccc2)C3)cc1 (centres unmarked) [compound 367] | > 42.7 µM | 24.6 µM |  |  |  |
| Cc1ccc(C2Nc3ccccc3NC3=C2C(=O)CC(c2ccccc2Cl)C3)cc1 (centres unmarked) [compound 395] | > 42.7 µM | 9.91 µM |  |  |  |
| COc1ccc(C2CC(=O)C3=C(C2)Nc2ccccc2NC3c2cccc(OC)c2OC)cc1OC (centres unmarked) [compound 401] | > 42.7 µM | 2.88 µM |  |  |  |
| O=C1CC(c2ccccc2OCc2ccccc2)CC2=C1C(C(Br)=Cc1ccccc1)Nc1ccccc1N2 (mixture of isomers) [compound 497] | > 133 µM | 3.79 µM |  |  |  |
| CCC(=O)N1c2ccccc2NC2=C(C(=O)CC(C)(C)C2)C1c1ccccc1OC(C)CC (centres unmarked) [compound 61] |  |  | > 42.7 µM | 9.45 µM |  |
| COc1cccc(C2C3=C(CC(C)(C)CC3=O)Nc3ccccc3N2C(=O)Cc2ccc(Cl)cc2)c1 (centres unmarked) [compound 34] |  |  | > 42.7 µM | 6.81 µM |  |
| CC1(C)CC(=O)C2=C(C1)Nc1ccccc1NC2c1ccc(Oc2ccccc2)cc1 (centres unmarked) [compound 435, 11-(4-phenoxyphenyl)-3,3-dimethyl-2,3,4,5,10,11-hexahydro-1H-dibenzo[b,e][1,4]diazepin-1-one] | > 133 µM | 6.7 µM |  |  |  |
| COc1ccc(C2CC(=O)C3=C(C2)Nc2ccccc2NC3c2ccccc2Br)cc1 (centres unmarked) [compound 390] | > 42.7 µM | 9.07 µM |  |  |  |
| Cn1cccc1C1C2=C(CC(C)(C)CC2=O)Nc2ccccc2N1C(=O)C(F)(F)F (centres unmarked) [compound 260] |  |  | > 42.7 µM | 22.5 µM |  |
| COc1cc(C2Nc3ccccc3NC3=C2C(=O)CC(c2ccccc2)C3)cc(OC)c1OC (centres unmarked) [compound 339] | > 42.7 µM | 9.15 µM |  |  |  |
| CC1(C)CC(=O)C2=C(C1)Nc1ccccc1N(C(=O)C(F)(F)F)C2/C=C/c1ccccc1 (racemic) [compound 244] |  |  | > 33.3 µM | 15.9 µM |  |
| COc1ccc(C2C3=C(CC(c4cccs4)CC3=O)Nc3ccccc3N2C(=O)Nc2ccc(Cl)c(Cl)c2)cc1 (centres unmarked) [compound 287] |  |  | > 33.3 µM | 5.01 µM |  |
| CCC(C)Oc1ccccc1C1C2=C(CC(c3ccc(OC)c(OC)c3)CC2=O)Nc2ccccc2N1C(=O)c1ccccc1 (centres unmarked) [compound 183] |  |  | > 42.7 µM | 1.32 µM |  |
| O=C1CC(c2ccc(Cl)cc2)CC2=C1C(c1ccccc1OCc1ccccc1)Nc1ccccc1N2 (centres unmarked) [compound 366] | > 42.7 µM | 5.31 µM |  |  |  |
| CCC(=O)N1c2ccccc2NC2=C(C(=O)CC(c3ccc(C)cc3)C2)C1c1cccc(Cl)c1 (mixture of isomers) [compound 195] |  |  |  |  | IC50 [1, 7]: > 33.3 µM; EC50 [2, 8]: 6.9 µM |
| CC1(C)CC(=O)C2=C(C1)Nc1ccccc1NC2c1ccc(Oc2ccccc2Br)cc1 (centres unmarked) [compound 442, 11-[4-(2-bromophenoxy)phenyl]-3,3-dimethyl-2,3,4,5,10,11-hexahydro-1H-dibenzo[b,e][1,4]diazepin-1-one] | > 133 µM | 2.71 µM |  |  |  |
| CC1(C)CC(=O)C2=C(C1)Nc1ccccc1N(C(=O)C(F)(F)F)C2c1ccc(OCc2ccccc2)cc1 (centres unmarked) [compound 52] |  |  | > 42.7 µM | 7.44 µM |  |
| CN(C)c1ccc(C2Nc3ccccc3NC3=C2C(=O)CC(c2ccc(Cl)cc2)C3)cc1 (centres unmarked) [compound 364] | > 42.7 µM | 20.8 µM |  |  |  |
| CC(C)CC(=O)N1c2ccccc2NC2=C(C(=O)CC(C)(C)C2)C1c1ccc(Cl)cc1 (centres unmarked) [compound 9] |  |  | > 42.7 µM | 3.61 µM |  |
| COc1ccc(C2C3=C(CC(C)(C)CC3=O)Nc3ccccc3N2C(=O)c2ccc(Cl)cc2)cc1OC (centres unmarked) [compound 68] |  |  | > 42.7 µM | 23.1 µM |  |
| CC(=O)N1c2ccccc2NC2=C(C(=O)CC(C)(C)C2)C1c1cccc(Oc2ccccc2Br)c1 (centres unmarked) [compound 149, 10-acetyl-11-[3-(2-bromophenoxy)phenyl]-3,3-dimethyl-2,3,4,5,10,11-hexahydro-1H-dibenzo[b,e][1,4]diazepin-1-one] |  |  | 30.4 µM | 1.78 µM |  |
| CC1(C)CC(=O)C2=C(C1)Nc1ccccc1N(C(=O)C(F)(F)F)C2c1cccs1 (centres unmarked) [compound 267] |  |  | > 42.7 µM | 9.39 µM |  |

| SMILES | IC50 [1, 3] | EC50 [2, 4] | IC50 [1, 5] | EC50 [2, 6] | other results |
| --- | --- | --- | --- | --- | --- |
| O=C1C[C@@H](c2ccc(Cl)cc2)CC2=C1[C@H](c1cccnc1)Nc1ccccc1N2 [compound 483] | > 42.7 µM | 15.5 µM |  |  |  |
| CCCOc1ccccc1C1CC(=O)C2=C(C1)Nc1ccccc1N(C(=O)C(F)(F)F)C2c1ccc(OC)cc1 (centres unmarked) [compound 163] |  |  |  |  | IC50 [1, 7]: > 42.7 µM; EC50 [2, 8]: 1.76 µM |
| COc1ccc(OC)c(C2C3=C(CC(C)(C)CC3=O)Nc3ccccc3N2C(=O)C(F)(F)F)c1Br (centres unmarked) [compound 96] |  |  | > 42.7 µM | 11.4 µM |  |
| CC(=O)N1c2ccccc2NC2=C(C(=O)CC(C)(C)C2)C1c1cccc(F)c1 (centres unmarked) [compound 104] |  |  | > 42.7 µM | > 32 µM |  |
| O=C1C[C@@H](c2ccccc2)CC2=C1[C@H](c1coc3ccccc3c1=O)Nc1ccccc1N2 [compound 488] | > 42.7 µM | 17.8 µM |  |  |  |
| O=C1CC(c2ccccc2)CC2=C1C(c1cccc(OCc3ccccc3)c1)Nc1ccccc1N2 (centres unmarked) [compound 373] | > 42.7 µM | 9.42 µM |  |  |  |
| COc1ccc(C2C3=C(CC(C)(C)CC3=O)Nc3ccccc3N2C(=O)Cc2ccc(Cl)cc2)cc1 (centres unmarked) [compound 12] |  |  | > 42.7 µM | 3.11 µM |  |
| CCn1c2ccccc2c2cc([C@@H]3Nc4ccccc4NC4=C3C(=O)C[C@@H](c3ccccc3)C4)ccc21 [compound 484] | > 42.7 µM | 6.65 µM |  |  |  |
| O=C1CC(c2ccccc2)CC2=C1C(c1ccccc1Br)Nc1ccccc1N2 (centres unmarked) [compound 345] | > 42.7 µM | 21 µM |  |  |  |
| COc1ccc(C2CC(=O)C3=C(C2)Nc2ccccc2N(C(=O)c2ccccc2)C3c2ccc(C)cc2)cc1OC (centres unmarked) [compound 170] |  |  |  |  | IC50 [1, 7]: > 42.7 µM; EC50 [2, 8]: 3.75 µM |
| CCC(=O)N1c2ccccc2NC2=C(C(=O)CC(C)(C)C2)C1c1ccc(OC)cc1OC (centres unmarked) [compound 75] |  |  | > 42.7 µM | 20.5 µM |  |
| CCC(=O)N1c2ccccc2NC2=C(C(=O)CC(C)(C)C2)C1c1ccc(Br)s1 (centres unmarked) [compound 249] |  |  | > 42.7 µM | 3.66 µM |  |
| COC(=O)c1ccc(C2Nc3ccccc3NC3=C2C(=O)CC(c2ccccc2)C3)cc1 (centres unmarked) [compound 374] | > 42.7 µM | 10.1 µM |  |  |  |
| CCCCCC(=O)N1c2ccccc2NC2=C(C(=O)CC(c3ccc(C)cc3)C2)C1c1ccccc1Cl (mixture of isomers) [compound 182] |  |  |  |  | IC50 [1, 7]: > 42.7 µM; EC50 [2, 8]: 1.82 µM |
| CC(=O)N1c2ccccc2NC2=C(C(=O)CC(C)(C)C2)C1c1ccc(OCc2cccnc2)cc1 (centres unmarked) [compound 140, 10-acetyl-3,3-dimethyl-11-[4-(3-pyridylmethoxy)phenyl]-2,3,4,5,10,11-hexahydro-1H-dibenzo[b,e][1,4]diazepin-1-one] |  |  | 19.1 µM | 7.23 µM |  |
| CCCOc1ccc(C2C3=C(CC(C)(C)CC3=O)Nc3ccccc3N2C(C)=O)cc1OC (centres unmarked) [compound 129] |  |  | > 42.7 µM | > 32 µM |  |
| CC1(C)CC(=O)C2=C(C1)Nc1ccccc1N(C(=O)C1CC1)C2c1ccc(Cl)cc1Cl (centres unmarked) [compound 53] |  |  | 19.7 µM | > 32 µM |  |
| CN(C)c1ccc(C2C3=C(CC(C)(C)CC3=O)Nc3ccccc3N2C(=O)Cc2ccc(Cl)cc2)cc1 (centres unmarked) [compound 8] |  |  | > 42.7 µM | 5.65 µM |  |
| CCCCCOc1ccc(C2C3=C(CC(C)(C)CC3=O)Nc3ccccc3N2C(C)=O)cc1 (centres unmarked) [compound 102] |  |  | > 42.7 µM | > 32 µM |  |
| COc1ccc(C2CC(=O)C3=C(C2)Nc2ccccc2NC3c2ccc(Cl)cc2)cc1 (centres unmarked) [compound 416] | > 33.3 µM | 11.2 µM |  |  |  |
| CC(=O)N1c2cccc(C#N)c2NC2=C(C(=O)CC(C)(C)C2)C1c1ccc(Cl)cc1Cl (centres unmarked) [compound 316] |  |  | 6.97 µM | 15.4 µM |  |
| COc1ccc(C2CC(=O)C3=C(C2)Nc2ccccc2NC3c2cccc(Oc3ccccc3)c2)cc1 (centres unmarked) [compound 331] | > 42.7 µM | 7.44 µM |  |  |  |
| CC(=O)N1c2ccccc2NC2=C(C(=O)CC(C)(C)C2)C1c1ccc(-c2ccc([N+](=O)[O-])cc2Cl)o1 (centres unmarked) [compound 279] |  |  | > 42.7 µM | 9.27 µM |  |
| CCCCC(=O)N1c2ccccc2NC2=C(C(=O)CC(C)(C)C2)C1c1ccc2c(c1)OCO2 (centres unmarked) [compound 265] |  |  | > 42.7 µM | 11.3 µM |  |
| CC(=O)N1c2ccccc2NC2=C(C(=O)CC(C)(C)C2)C1c1ccccc1OCc1ccccc1 (centres unmarked) [compound 19] |  |  | > 42.7 µM |  | EC50 ([2]; read-out: Replicon Assay EC50, Huh-Luc cells, three days incubation, luciferase activity): > 32 µM |
| COc1ccc(C2CC(=O)C3=C(C2)Nc2ccccc2NC3c2ccc(OCc3ccccc3)cc2)cc1 (centres unmarked) [compound 388] | > 42.7 µM | 6.35 µM |  |  |  |
